Measured values from paper PMC5218480 (PLoS ONE, 2017).

Tested on: MV-4-11 cells
Test: Gene expression microarray analysis (Affymetrix PrimeView) and GSEA
Assay type: cell-based, human
Set-up: RFU PODN (11730768_x_at) / Fold change /veh PODN (11730768_x_at) / RFU LINC00158 (11744669_a_at) / Fold change /veh LINC00158 (11744669_a_at) / RFU DUSP10 (11751237_a_at) / Fold change /veh DUSP10 (11751237_a_at) / RFU ID3 (11757404_x_at) / Fold change /veh ID3 (11757404_x_at) / RFU PLEKHG5 (11737974_s_at) / Fold change /veh PLEKHG5 (11737974_s_at) / RFU LRRC4B (11730491_at) / Fold change /veh LRRC4B (11730491_at) / RFU GIMAP4 (11747438_a_at) / Fold change /veh GIMAP4 (11747438_a_at) / RFU KRT8 (11758183_x_at) / Fold change /veh KRT8 (11758183_x_at) / RFU CNN1 (11734310_a_at) / Fold change /veh CNN1 (11734310_a_at) / RFU VPS37D (11726825_at) / Fold change /veh VPS37D (11726825_at) / RFU C10orf10 (11716522_x_at) / Fold change /veh C10orf10 (11716522_x_at) / RFU KIR2DL2 /// KIR2DL4 /// KIR2DL5A /// KIR2DL5B /// KIR2DS1 /// KIR2DS2 /// KIR2DS3 /// KIR2DS4 /// KIR3DL3 /// KIR3DL3 /// KIR3DS1 (11738374_at) / Fold change /veh KIR2DL2 /// KIR2DL4 /// KIR2DL5A /// KIR2DL5B /// KIR2DS1 /// KIR2DS2 /// KIR2DS3 /// KIR2DS4 /// KIR3DL3 /// KIR3DL3 /// KIR3DS1 (11738374_at) / RFU C1QL1 (11718748_at) / Fold change /veh C1QL1 (11718748_at) / RFU TMPRSS4 (11747572_a_at) / Fold change /veh TMPRSS4 (11747572_a_at) / RFU HAMP (11756126_x_at) / Fold change /veh HAMP (11756126_x_at) / RFU RNFT2 (11725882_a_at) / Fold change /veh RNFT2 (11725882_a_at) / RFU NR4A2 (11747474_a_at) / Fold change /veh NR4A2 (11747474_a_at) / RFU ABCC12 (11746883_a_at) / Fold change /veh ABCC12 (11746883_a_at) / RFU TMEM136 (11760407_x_at) / Fold change /veh TMEM136 (11760407_x_at) / RFU CLDN22 /// WWC2 (11732394_at) / Fold change /veh CLDN22 /// WWC2 (11732394_at) / RFU HLA-DPB1 (11760878_x_at) / Fold change /veh HLA-DPB1 (11760878_x_at) / RFU SPINT1 (11716480_a_at) / Fold change /veh SPINT1 (11716480_a_at) / RFU GAP43 (11754022_s_at) / Fold change /veh GAP43 (11754022_s_at) / RFU A4GNT (11735810_at) / Fold change /veh A4GNT (11735810_at) / RFU PRB3 (11715151_x_at) / Fold change /veh PRB3 (11715151_x_at) / RFU TUBB4B (11761932_at) / Fold change /veh TUBB4B (11761932_at) / RFU CAPN14 (11732068_a_at) / Fold change /veh CAPN14 (11732068_a_at) / RFU TMCC2 (11721928_a_at) / Fold change /veh TMCC2 (11721928_a_at) / RFU IRGQ (11745062_a_at) / Fold change /veh IRGQ (11745062_a_at) / RFU FAM174B (11720279_a_at) / Fold change /veh FAM174B (11720279_a_at) / RFU TMPRSS4 (11748680_a_at) / Fold change /veh TMPRSS4 (11748680_a_at) / RFU FAM212B (11763350_a_at) / Fold change /veh FAM212B (11763350_a_at) / RFU PLEKHG5 (11743358_a_at) / Fold change /veh PLEKHG5 (11743358_a_at) / RFU ZSCAN30 (11745921_a_at) / Fold change /veh ZSCAN30 (11745921_a_at) / RFU CMKLR1 (11741424_a_at) / Fold change /veh CMKLR1 (11741424_a_at) / RFU LOC101060620 /// MAPK8IP1 (11723275_at) / Fold change /veh LOC101060620 /// MAPK8IP1 (11723275_at) / RFU SPTSSB (11747773_x_at) / Fold change /veh SPTSSB (11747773_x_at) / RFU PRSS12 (11739890_at) / Fold change /veh PRSS12 (11739890_at) / RFU BIN1 (11741810_x_at) / Fold change /veh BIN1 (11741810_x_at) / RFU WNT11 (11732464_a_at) / Fold change /veh WNT11 (11732464_a_at) / RFU C10orf10 (11716521_a_at) / Fold change /veh C10orf10 (11716521_a_at) / RFU C5orf56 (11738089_at) / Fold change /veh C5orf56 (11738089_at) / RFU CYB561 (11721691_x_at) / Fold change /veh CYB561 (11721691_x_at) / RFU ANKRD19P (11752326_a_at) / Fold change /veh ANKRD19P (11752326_a_at) / RFU OR2T12 /// OR2T33 /// OR2T8 (11738714_s_at) / Fold change /veh OR2T12 /// OR2T33 /// OR2T8 (11738714_s_at) / RFU VCAN (11748164_a_at) / Fold change /veh VCAN (11748164_a_at) / RFU JSRP1 (11732532_at) / Fold change /veh JSRP1 (11732532_at) / RFU KRTAP10-11 (11738290_x_at) / Fold change /veh KRTAP10-11 (11738290_x_at) / RFU MYO3A (11730013_a_at) / Fold change /veh MYO3A (11730013_a_at) / RFU EBF3 (11725865_a_at) / Fold change /veh EBF3 (11725865_a_at) / RFU CAMK2N1 (11719241_x_at) / Fold change /veh CAMK2N1 (11719241_x_at) / RFU C5orf56 (11738088_a_at) / Fold change /veh C5orf56 (11738088_a_at) / RFU OLFML3 (11715873_a_at) / Fold change /veh OLFML3 (11715873_a_at) / RFU LOC100653217 /// NTM (11731650_a_at) / Fold change /veh LOC100653217 /// NTM (11731650_a_at) / RFU MAPK11 (11762145_a_at) / Fold change /veh MAPK11 (11762145_a_at) / RFU FIZ1 (11724087_x_at) / Fold change /veh FIZ1 (11724087_x_at) / RFU OASL (11726364_x_at) / Fold change /veh OASL (11726364_x_at) / RFU SOX15 (11748057_x_at) / Fold change /veh SOX15 (11748057_x_at) / RFU CD79A (11719716_a_at) / Fold change /veh CD79A (11719716_a_at) / RFU HIST1H1D (11736915_at) / Fold change /veh HIST1H1D (11736915_at) / RFU CASKIN2 (11723855_a_at) / Fold change /veh CASKIN2 (11723855_a_at) / RFU LOC730098 (11760151_x_at) / Fold change /veh LOC730098 (11760151_x_at) / RFU OR4N2 (11742367_at) / Fold change /veh OR4N2 (11742367_at) / RFU PRRT2 (11749266_a_at) / Fold change /veh PRRT2 (11749266_a_at) / RFU SNX32 (11753110_a_at) / Fold change /veh SNX32 (11753110_a_at) / RFU CDHR5 (11726645_a_at) / Fold change /veh CDHR5 (11726645_a_at) / RFU RCAN1 (11760418_a_at) / Fold change /veh RCAN1 (11760418_a_at) / RFU FAM167A (11723789_a_at) / Fold change /veh FAM167A (11723789_a_at) / RFU FAM26E (11764081_at) / Fold change /veh FAM26E (11764081_at) / RFU ISYNA1 (11749810_s_at) / Fold change /veh ISYNA1 (11749810_s_at) / RFU ACY1 (11761880_at) / Fold change /veh ACY1 (11761880_at) / RFU 11764098_at / Fold change /veh 11764098_at / RFU SAMD14 (11745864_x_at) / Fold change /veh SAMD14 (11745864_x_at) / RFU NPB (11741838_a_at) / Fold change /veh NPB (11741838_a_at) / RFU TMPRSS6 (11731388_a_at) / Fold change /veh TMPRSS6 (11731388_a_at) / RFU KRTAP10-2 (11738614_at) / Fold change /veh KRTAP10-2 (11738614_at) / RFU ARHGAP8 /// PRR5-ARHGAP8 (11727945_x_at) / Fold change /veh ARHGAP8 /// PRR5-ARHGAP8 (11727945_x_at) / RFU KRTAP5-7 /// NADSYN1 (11734609_at) / Fold change /veh KRTAP5-7 /// NADSYN1 (11734609_at) / RFU RASL12 (11751679_a_at) / Fold change /veh RASL12 (11751679_a_at) / RFU CDKN2B (11736163_a_at) / Fold change /veh CDKN2B (11736163_a_at) / RFU PRF1 (11729649_at) / Fold change /veh PRF1 (11729649_at) / RFU, ZNF638 /// ZNF638-IT1 / Fold change vs veh, ZNF638 /// ZNF638-IT1 / RFU, PANK3 / Fold change vs veh, PANK3 / RFU, SH3YL1 / Fold change vs veh, SH3YL1 / RFU, ZEB2 / Fold change vs veh, ZEB2 / RFU, NRIP1 / Fold change vs veh, NRIP1 / RFU, PTTG1IP / Fold change vs veh, PTTG1IP / RFU, CAPN2 / Fold change vs veh, CAPN2 / RFU, MED14 / Fold change vs veh, MED14 / RFU, SNORA58 / Fold change vs veh, SNORA58 / RFU, C1orf63 / Fold change vs veh, C1orf63 / RFU, LRRFIP1 / Fold change vs veh, LRRFIP1 / RFU, NDUFAF7 / Fold change vs veh, NDUFAF7 / RFU, SLC12A2 / Fold change vs veh, SLC12A2 / RFU, IBTK / Fold change vs veh, IBTK / RFU, ESF1 / Fold change vs veh, ESF1 / Fold change vs veh, TMEM50B / RFU, TAOK1 / Fold change vs veh, TAOK1 / RFU, ACBD3 / Fold change vs veh, ACBD3 / RFU, TMA16 / Fold change vs veh, TMA16 / RFU, RWDD3 / Fold change vs veh, RWDD3 / RFU, BCAT1 / Fold change vs veh, BCAT1 / RFU, EDEM3 / Fold change vs veh, EDEM3 / RFU, TMEM33 / Fold change vs veh, TMEM33 / RFU, WDR75 / Fold change vs veh, WDR75 / RFU, AHCTF1 / Fold change vs veh, AHCTF1 / RFU, TFRC / Fold change vs veh, TFRC / RFU, ZDHHC17 / Fold change vs veh, ZDHHC17 / RFU, NOM1 / Fold change vs veh, NOM1 / RFU, ARL8B / Fold change vs veh, ARL8B / RFU, ZBTB11 / Fold change vs veh, ZBTB11 / RFU, TAMM41 / Fold change vs veh, TAMM41 / RFU, KIAA1704 /// LOC100996395 / Fold change vs veh, KIAA1704 /// LOC100996395 / RFU, ING1 / Fold change vs veh, ING1 / RFU, TRMT61B / Fold change vs veh, TRMT61B / RFU, FUBP3 / Fold change vs veh, FUBP3 / RFU, TP53 / Fold change vs veh, TP53 / RFU, TNKS2 / Fold change vs veh, TNKS2 / RFU, ZFP14 / Fold change vs veh, ZFP14 / RFU, ACTR2 / Fold change vs veh, ACTR2 / RFU, PPP3R1 / Fold change vs veh, PPP3R1 / RFU, PIK3R1 / Fold change vs veh, PIK3R1 / RFU, HNRNPA1 / Fold change vs veh, HNRNPA1 / RFU, RNF170 / Fold change vs veh, RNF170 / RFU, ZNF28 / Fold change vs veh, ZNF28 / RFU, RNGTT / Fold change vs veh, RNGTT / RFU, OGT / Fold change vs veh, OGT / RFU, BRD1 / Fold change vs veh, BRD1 / RFU, MARS / Fold change vs veh, MARS / RFU, ZNF655 / Fold change vs veh, ZNF655 / RFU, FAHD1 / Fold change vs veh, FAHD1 / RFU, BDP1 / Fold change vs veh, BDP1 / RFU, LRRCC1 / Fold change vs veh, LRRCC1 / RFU, ARID1A / Fold change vs veh, ARID1A / RFU, ZNF146 / Fold change vs veh, ZNF146 / RFU, ZNF330 / Fold change vs veh, ZNF330 / RFU, GPN3 / Fold change vs veh, GPN3 / RFU, C9orf123 / Fold change vs veh, C9orf123 / RFU, N4BP2L2 / Fold change vs veh, N4BP2L2 / RFU, ARFIP1 / Fold change vs veh, ARFIP1 / RFU, FAM179B / Fold change vs veh, FAM179B / RFU, BCL10 / Fold change vs veh, BCL10 / RFU, UHRF1BP1L / Fold change vs veh, UHRF1BP1L / RFU, BET1 / Fold change vs veh, BET1 / RFU, CNOT2 / Fold change vs veh, CNOT2 / RFU, ZNF268 / Fold change vs veh, ZNF268 / Fold change vs veh, ZNF507 / RFU, DGCR2 / Fold change vs veh, DGCR2 / RFU, WDSUB1 / Fold change vs veh, WDSUB1 / Fold change vs veh, HSP90B1 /// MIR3652 / RFU, ADSS / Fold change vs veh, ADSS / RFU, GK / Fold change vs veh, GK / RFU, ZNF148 / Fold change vs veh, ZNF148 / RFU, TAF9 / Fold change vs veh, TAF9 / RFU, SLC1A5 / Fold change vs veh, SLC1A5 / RFU, SLMO2 / Fold change vs veh, SLMO2 / RFU, ABCC4 / Fold change vs veh, ABCC4 / RFU, LOC101060439 /// RAP1B / Fold change vs veh, LOC101060439 /// RAP1B / RFU, RFX7 / Fold change vs veh, RFX7 / RFU, GTPBP10 / Fold change vs veh, GTPBP10 / RFU, CNEP1R1 / Fold change vs veh, CNEP1R1 / RFU, BIVM-ERCC5 /// ERCC5 / Fold change vs veh, BIVM-ERCC5 /// ERCC5 / RFU, ILF3 / Fold change vs veh, ILF3 / RFU 11762660_at / Fold change /veh 11762660_at / RFU VCAN (11757783_s_at) / Fold change /veh VCAN (11757783_s_at) / RFU DDX43 (11728927_at) / Fold change /veh DDX43 (11728927_at) / RFU KRT8 (11758188_x_at) / Fold change /veh KRT8 (11758188_x_at) / RFU NKD1 (11759106_at) / Fold change /veh NKD1 (11759106_at) / RFU SRD5A1 (11742802_a_at) / Fold change /veh SRD5A1 (11742802_a_at) / RFU TPSAB1 /// TPSB2 (11721975_s_at) / Fold change /veh TPSAB1 /// TPSB2 (11721975_s_at) / RFU GSTM3 (11746129_a_at) / Fold change /veh GSTM3 (11746129_a_at) / RFU IL23R (11737362_x_at) / Fold change /veh IL23R (11737362_x_at) / RFU TMEM51 (11727254_a_at) / Fold change /veh TMEM51 (11727254_a_at) / RFU PIWIL2 (11732686_x_at) / Fold change /veh PIWIL2 (11732686_x_at) / RFU ORM1 (11744905_x_at) / Fold change /veh ORM1 (11744905_x_at) / RFU CCDC152 (11743942_at) / Fold change /veh CCDC152 (11743942_at) / RFU ECM1 (11717891_a_at) / Fold change /veh ECM1 (11717891_a_at) / RFU IL23R (11748794_a_at) / Fold change /veh IL23R (11748794_a_at) / RFU TNFAIP8L3 (11732012_x_at) / Fold change /veh TNFAIP8L3 (11732012_x_at) / RFU MBOAT4 (11741988_at) / Fold change /veh MBOAT4 (11741988_at) / RFU 11764193_at / Fold change /veh 11764193_at / RFU TMEM53 (11763286_at) / Fold change /veh TMEM53 (11763286_at) / RFU MAGEB2 (11727129_at) / Fold change /veh MAGEB2 (11727129_at) / RFU TMEM200A (11744735_a_at) / Fold change /veh TMEM200A (11744735_a_at) / RFU CCDC152 (11751479_a_at) / Fold change /veh CCDC152 (11751479_a_at) / RFU FAM211A (11726209_a_at) / Fold change /veh FAM211A (11726209_a_at) / RFU RGS16 (11746705_a_at) / Fold change /veh RGS16 (11746705_a_at) / RFU VCAN (11755009_s_at) / Fold change /veh VCAN (11755009_s_at) / RFU RHOB (11743442_s_at) / Fold change /veh RHOB (11743442_s_at) / RFU RGS16 (11720943_a_at) / Fold change /veh RGS16 (11720943_a_at) / RFU RGS16 (11720944_at) / Fold change /veh RGS16 (11720944_at) / RFU, VPS4B / Fold change vs veh, VPS4B / RFU, CREB1 / Fold change vs veh, CREB1 / RFU, DNAJC13 / Fold change vs veh, DNAJC13 / RFU, GNAQ / Fold change vs veh, GNAQ / RFU, CDK5R1 / Fold change vs veh, CDK5R1 / RFU, ZRANB3 / Fold change vs veh, ZRANB3 / RFU, CUL4A / Fold change vs veh, CUL4A / RFU, CCNY / Fold change vs veh, CCNY / RFU, UFL1 / Fold change vs veh, UFL1 / RFU, COG3 / Fold change vs veh, COG3 / RFU, DIAPH2 / Fold change vs veh, DIAPH2 / RFU, SKA2 / Fold change vs veh, SKA2 / RFU, AFF3 / Fold change vs veh, AFF3 / RFU, LMF1 / Fold change vs veh, LMF1 / RFU, IPO11 / Fold change vs veh, IPO11 / RFU, DFFB / Fold change vs veh, DFFB / RFU, FOXP1 / Fold change vs veh, FOXP1 / RFU, CARD8 / Fold change vs veh, CARD8 / RFU, STRN3 / Fold change vs veh, STRN3 / RFU, ADK / Fold change vs veh, ADK / RFU, RASSF2 / Fold change vs veh, RASSF2 / RFU, WIPF1 / Fold change vs veh, WIPF1 / RFU, LARP1B / Fold change vs veh, LARP1B / RFU, RASA1 / Fold change vs veh, RASA1 / RFU, RB1 / Fold change vs veh, RB1 / RFU, PPFIA1 / Fold change vs veh, PPFIA1 / RFU, MAT2A / Fold change vs veh, MAT2A / RFU, CCT5 / Fold change vs veh, CCT5 / RFU, WDR92 / Fold change vs veh, WDR92 / RFU, CUX1 / Fold change vs veh, CUX1 / RFU, TTC7A / Fold change vs veh, TTC7A / RFU, TMEM135 / Fold change vs veh, TMEM135 / RFU, DEPTOR / Fold change vs veh, DEPTOR / RFU, CPM / Fold change vs veh, CPM / RFU, DNAJB6 / Fold change vs veh, DNAJB6 / RFU, CACNA2D3 / Fold change vs veh, CACNA2D3 / RFU, DTX4 / Fold change vs veh, DTX4 / RFU, TFCP2 / Fold change vs veh, TFCP2 / RFU, GMCL1 /// GMCL1P1 / Fold change vs veh, GMCL1 /// GMCL1P1 / RFU, AEBP2 / Fold change vs veh, AEBP2 / RFU, SNHG1 /// SNORD22 /// SNORD25 /// SNORD26 /// SNORD27 /// SNORD28 /// SNORD29 /// SNORD31 / Fold change vs veh, SNHG1 /// SNORD22 /// SNORD25 /// SNORD26 /// SNORD27 /// SNORD28 /// SNORD29 /// SNORD31 / Fold change (Aza/veh), C12orf56 (ProbeSet 11735607_a_at) / Fold change (ACY-1035/veh), C12orf56 (ProbeSet 11735607_a_at) / Fold change (Aza/veh), FGFR1OP (ProbeSet 11751329_s_at) / Fold change (ACY-1035/veh), FGFR1OP (ProbeSet 11751329_s_at) / Fold change (Aza/veh), VPS36 (ProbeSet 11739960_a_at) / Fold change (ACY-1035/veh), VPS36 (ProbeSet 11739960_a_at) / RFU SYPL1 (11715823_x_at) / Fold change /veh SYPL1 (11715823_x_at) / RFU IGFBP7 (11715501_s_at) / Fold change /veh IGFBP7 (11715501_s_at) / RFU REEP3 (11722064_at) / Fold change /veh REEP3 (11722064_at) / RFU IGLL1 (11728026_x_at) / Fold change /veh IGLL1 (11728026_x_at): dose or concentration left out as unconfirmed
Settings: ProbeSet 11741070_a_at; LIST B

Nc1ccc(-c2cccs2)cc1NC(=O)c1ccc2c(c1)cc(C1CC1)n2CCN1CCOCC1 [ACY-1035]
RFU, ZNF146: 2312.59 RFU
